Where two headings read alike, the source gives them in different places.
Key:
[1] = test system: PGE2 production; test: Inhibition of PGE2 formation in LPS-stimulated RAW 264.7 macrophages (EIA); type: cell-based, murine; conditions: Mus musculus, read-out: PGE2 Production by RAW Cells IC50
Description: (§1) The anti-inflammatory effects of the compounds were evaluated in activated macrophages by determining the inhibition of the synthesis of nitric oxide and/or PGE2. In order to induce an in vitro “inflammatory response”, murine macrophages RAW264.7 were stimulated with lipopolysaccharide (LPS) without or with graded amounts of the test substances. Murine macrophages RAW 264.7 cells respond to LPS-stimulation by the release of substantial amounts of Prostaglandin E2 (PGE2) and nitric oxide (NO), which is impaired by anti-inflammatory compounds. Prostaglandins PGE2 play a critical role in the inflammation process, while nitric oxide is a hallmark of inflammation in conditions like arthritis. Therefore, we evaluated the effect of the compounds on PGE2 and NO production.
RAW 264.7 cells: were cultured in Dulbecco's Modified eagle Medium (DMEM) supplemented with 10% fetal calf serum (FCS), 50 units/ml penicillin, 50 μg/ml streptomycin, L-glutamine and nonessential amino acids (NEM, Life Technologies, No. 11140). RAW cells were used between passage 10 and 50. For the experiments, cells were seeded into 6-well, 12-well or 96-well plates at 2, 1 and 0.05 mio cells per well, respectively, and used after 1 or 2 days of pre-culture. Cells were starved in complete DMEM medium containing 0.25% FCS 18 hours before the treatment. Cells were stimulated with LPS (1 μg/ml) for 24 hours in phenol-free DMEM containing 0.25% FCS. Substances to be tested were dissolved in DMSO (usually at 10 mM) and added to the culture medium concomitantly with the stimulus. […] After 24 hours nitrite concentrations were measured in culture supernatants by the Griess reaction and secreted PGE2 was determined by Enzyme immunoassay (EIA) in unstimulated and LPS-stimulated RAW264.7 cells. The compounds were simultaneously tested at different concentrations to obtain a dose response curve. […] The effects of compounds of the formula (I) on PGE2 production was also measured in the murine macrophage cell line RAW 264.7 (Table 1).

[2] = test system: carrageenan-induced paw edema; test: Carrageenan-induced paw edema in rats; type: in vivo; conditions: rat, 100 mg/kg oral; for Paw edema volume: mean of 10
Description: The anti-inflammatory activity of the compounds was evaluated in vivo in the carrageenan-induced paw edema rat model. This model has long been used to assess the anti-inflammatory properties of agents that inhibit prostaglandins, such as nonsteroidal anti-inflammatory drugs (NSAIDs) The model causes time-dependent edema formation following carrageenan administration into the sub-plantar surface of a rat paw. Twenty male Sprague-Dawley rats weighing 130 to 146 g were randomized in two groups. They were housed in a temperature (19.5-24.5° C.) and relative humidity (45-65%) controlled room with a 12-h light/dark cycle, with ad libitum access to filtered tap-water and standard pelleted laboratory chow throughout the study. They were housed 5 per cage and a 5-6-day acclimatization period was observed before any testing. Animals were individually identified on the tail. Ligustilide (100 mg/kg) suspended in 1% methylcellulose (in a volume of 10 mL/kg) or vehicle alone were administered by the oral route in a coded and random order after an overnight fast. One hour later, inflammation is induced by subplantar injection of a 2% carrageenan suspension into the right paw. The paw volume of each rat was measured in mL at the following time points: 0 h, 1.5 h, 3 h, and 4.5 h after the injection of carrageenan. The paw edema volume of each rat at each time point was expressed as the change from initial value. The anti-inflammatory effect on edema volume in treated-groups was expressed as % inhibition [(mean of vehicle-treated group paw edema volume−mean of the treated group paw edema volume)/mean of vehicle-treated group paw edema volume)×100]. All data of paw edema volume are expressed in mL as Mean of 10 rats in each group.

[3] = test system: adhesion of U937 to human umbilical cord endothelial cells (HUVEC); test: Adhesion of U937 monocytes to TNF-α stimulated HUVEC; type: cell-based; conditions: 20 hours stimulation
Description: (§2) Artherosclerotic lesions can develop as a consequence of endothelial dysfunction. This is reflected by altered i.e. increased adhesion of monocytes to endothelial layers. We evaluated the effect of ligustilide on adhesion of U937, a monocyte cell line, to human umbilical cord endothelial cells (HUVEC). HUVEC were stimulated with TNF-α in the absence or presence of ligustilide (25 or 50 μmol/L) for 20 hours and the adhesion of U937 was determined according to Carluccio et al. (Arterioscler Thromb Vasc Biol 2003; 23, 622-629). […] Adhesion of monocytes to endothelial layers is mediated by the expression of intercellular adhesion molecule 1 (ICAM-1). Therefore, we further analyzed the effects of ligustilide on the level of ICAM-1 mRNA in HUVEC by quantitative RT-PCR.

[4] = test system: nitric oxide (NO) production; test: Inhibition of nitric oxide production in LPS-stimulated RAW264.7 macrophages (Griess reaction); type: cell-based, murine; conditions: Mus musculus; RAW264.7, LPS 1 μg/ml, 24 hours
Description: as §1
RAW 264.7 cells: were cultured in Dulbecco's Modified eagle Medium (DMEM) supplemented with 10% fetal calf serum (FCS), 50 units/ml penicillin, 50 μg/ml streptomycin, L-glutamine and nonessential amino acids (NEM, Life Technologies, No. 11140). […] After 24 hours nitrite concentrations were measured in culture supernatants by the Griess reaction and secreted PGE2 was determined by Enzyme immunoassay (EIA) in unstimulated and LPS-stimulated RAW264.7 cells. […] The effects of compounds of the formula (I) on PGE2 production was also measured in the murine macrophage cell line RAW 264.7 (Table 1).

[5] = test system: intercellular adhesion molecule 1 (ICAM-1) mRNA; test: ICAM-1 mRNA level in TNF-α stimulated HUVEC, quantitative RT-PCR; type: cell-based, human; conditions: 2 hours of stimulation
Description: as §2

[6] = test system: Collagen 2; test: Gene expression in IL-1β activated chondrocytes, RT-PCR; type: cell-based; conditions: 4 hours, SW1353 or normal human chondrocytes, concentration not given
Description: (§3) Articulate tissues i.e. joints contain chondrocytes. Their physiological deterioration leads to the erosion of joint tissue components and thus to e.g. osteoarthritis. We have evaluated the effect of ligustilide on catabolic events in chondrocytes. SW1353 chondrosarcoma cells or normal human chondrocytes (derived from knee) were activated with interleukin-1β in the presence of graded amount of test compounds for 4 hours. RNA was then extracted from these cells and reverse-transcribed. Expression of marker genes for catabolic events like matrix metalloproteinases (MMPs) was determined by quantitative real time polymerase chain reaction (RT-PCR). As shown in Table 5 ligustilide influenced the expression level of several MMPs, which are critically involved in the destruction of extracellular matrix. Ligustilide reduced its expression and thus is supposed to prevent tissue erosion in osteoarthritic diseases.

[7] = test system: MMP-9; test: as above; type: cell-based; conditions: 4 hours, SW1353 or normal human chondrocytes, concentration not given
Description: as §3

[8] = test system: Collagen 1; test: as above; type: cell-based; conditions: 4 hours, SW1353 or normal human chondrocytes, concentration not given
Description: as §3

[9] = test system: MMP-1; test: as above; type: cell-based; conditions: 4 hours, SW1353 or normal human chondrocytes, concentration not given
Description: as §3

[10] = test system: MMP-3; test: as above; type: cell-based; conditions: 4 hours, SW1353 or normal human chondrocytes, concentration not given
Description: as §3

[11] = test system: MMP-13; test: as above; type: cell-based; conditions: 4 hours, SW1353 or normal human chondrocytes, concentration not given
Description: as §3

[12] = test system: kaolin-induced arthritis; test: Kaolin-induced arthritis in rats, gait score; type: in vivo; conditions: rat, 100 mg/kg oral; for Gait score: score from 0 to 3, mean of 10; for % improvement of gait score: vs control
Description: Twenty male Sprague Dawley rats weighing 103 g to 132 g, were included in this study. They were housed in a temperature (19.5-24.5° C.) and relative humidity (45-65%) controlled room with a 12-h light/dark cycle, with ad libitum access to filtered tap-water and standard pelleted laboratory chow, throughout the study. Upon receipt at animal facilities, they were housed 5 per cage and at least a 5-day acclimatization period were observed before any testing. Animals were individually identified on the tail. Arthritis is induced by injection of a 10% kaolin suspension into the knee joint of the rat right hindpaw. In the vehicle-treated group, injection of kaolin suspension into the knee joint of the rat right hindpaw induced an impairment of the gait, evaluated by an increase of the gait score (score from 0 to 3). Gait of animals is used to measure the spontaneous painful behavior. Ligustilide (100 mg/kg) suspended in 1% methylcellulose (in a volume of 10 ml/kg) or vehicle alone were administered by oral route in a coded and random order, 30 min after kaolin injection. The assessment of score behavior was monitored every hour from 1.5 hours to 5.5 hours following drug dosing. The mean gait score was calculated from individual values at each time. The percentage of inhibition of the mean gait score as compared to the mean value of the control group was calculated 1.5, 2.5, 3.5, 4.5 hours and 5.5 hours after dosing.
The results are expressed for each group as the mean of the gait scores of 10 animals per group.

[13] = test system: TNF-α; test: Gene expression in LPS-stimulated THP-1 cells, quantitative RT-PCR; type: cell-based, human; conditions: THP-1, ligustilide 25 μM, LPS 1 μg/ml, 4 hours
Description: (§4) THP-1 cells, a human monocyte/histiocyte cell line, were cultured in RPMI 1640 medium supplemented with 10% FCS, 50 units/ml penicillin, […] streptomycin, NEM and 2×10^−5 M β-mercaptoethanol. Cells were treated with 50 nM phorbol myristate acetate for 3 days. Cells were starved overnight in medium containing 0.25% FCS before being treated. Cells were stimulated with LPS (1 μg/ml) for 4 hours in phenol-free RPMI containing 0.25% FCS. Ligustilide (25 μM) was added to the culture medium concomitantly with the stimulus. […] LPS-stimulation induces the expression of a large variety of genes including those of inflammatory pathways. After 4 hours of stimulation we have evaluated the impact of ligustilide on the expression of inflammatory genes using quantitative real-time RT-PCR (reverse transcriptase polymerase chain reaction) technology (Table 2).

[14] = test system: IL-1α; test: as above; type: cell-based, human; conditions: THP-1, ligustilide 25 μM, LPS 1 μg/ml, 4 hours
Description: as §4

[15] = test system: IL-6; test: as above; type: cell-based, human; conditions: THP-1, ligustilide 25 μM, LPS 1 μg/ml, 4 hours
Description: as §4

[16] = test system: MIP-3α; test: as above; type: cell-based, human; conditions: THP-1, ligustilide 25 μM, LPS 1 μg/ml, 4 hours
Description: as §4

[17] = test system: IL-8; test: as above; type: cell-based, human; conditions: THP-1, ligustilide 25 μM, LPS 1 μg/ml, 4 hours
Description: as §4

[18] = test system: MIP-2; test: as above; type: cell-based, human; conditions: THP-1, ligustilide 25 μM, LPS 1 μg/ml, 4 hours
Description: as §4

[19] = test system: COX-2; test: as above; type: cell-based, human; conditions: THP-1, ligustilide 25 μM, LPS 1 μg/ml, 4 hours
Description: as §4

[20] = RAW264.7, RAW 264.7, LPS 1 μg/ml, 24 hours

For `CCCC[C@@H]1OC(=O)c2ccccc21` [3-Butylphthalide, 3S-Butylphthalide], the IC50 [1, 20] was 3 µM.
For `CCC/C=C1\OC(=O)C2=C1CCC=C2` [Ligustilide], the “% Inhibition of paw edema volume vs vehicle-treated group” value (“% Inhibition of paw edema volume” for short) ([2]; 1.5 h after carrageenan) was 29%, the Paw edema volume ([2]; 1.5 h after carrageenan) was 0.17 mL and the “% Inhibition of paw edema volume” value ([2]; 3 h after carrageenan) was 27%. For the same compound, the Paw edema volume ([2]; 3 h after carrageenan) was 0.32 mL, the “% Inhibition of paw edema volume” value ([2]; 4.5 h after carrageenan) was 11% and the Paw edema volume ([2]; 4.5 h after carrageenan) was 0.40 mL. The “% reduction of adherence” value ([3]; TNF-α + 25 μM ligustilide) was 39%, the “Number of adherent cells” value ([3]; TNF-α + 25 μM ligustilide) was 61 ± 25 and the “% reduction of adherence” value ([3]; TNF-α + 50 μM ligustilide) was 73%. The “Number of adherent cells” value ([3]; TNF-α + 50 μM ligustilide) was 27 ± 21, the IC50 [1, 20] was 3.2 µM and the IC50 [4] was 12.2 ± 3.1 µM. The “% reduction of expression (ICAM-1 mRNA)” value ([5]; TNF-α + 25 μM ligustilide) was 58%, the “Relative ICAM-1 mRNA level” value ([5]; TNF-α + 25 μM ligustilide) was 25 ± 6 arbitrary units and the “% reduction of expression (ICAM-1 mRNA)” value ([5]; TNF-α + 50 μM ligustilide) was 73%. The “Relative ICAM-1 mRNA level” value ([5]; TNF-α + 50 μM ligustilide) was 16 ± 1 arbitrary units, the “Gene expression (in %) relative to IL-1β activated chondrocytes, Collagen 2” value [6] was 184% and the “Gene expression (in %) relative to IL-1β activated chondrocytes, MMP-9” value [7] was 33%. The “Gene expression (in %) relative to IL-1β activated chondrocytes, Collagen 1” value [8] was 115%, the “Gene expression (in %) relative to IL-1β activated chondrocytes, MMP-1” value [9] was 17% and the “Gene expression (in %) relative to IL-1β activated chondrocytes, MMP-3” value [10] was 2%. The “Gene expression (in %) relative to IL-1β activated chondrocytes, MMP-13” value [11] was 50%, the Gait score ([12]; 1.5 hours after dosing) was 0.3 and the “% improvement of gait score” value ([12]; 1.5 hours after dosing) was 25%. The Gait score ([12]; 2.5 hours after dosing) was 0.4, the “% improvement of gait score” value ([12]; 2.5 hours after dosing) was 43% and the Gait score ([12]; 3.5 hours after dosing) was 0.6. The “% improvement of gait score” value ([12]; 3.5 hours after dosing) was 50%, the Gait score ([12]; 4.5 hours after dosing) was 0.9 and the “% improvement of gait score” value ([12]; 4.5 hours after dosing) was 53%. The Gait score ([12]; 5.5 hours after dosing) was 1.3, the “% improvement of gait score” value ([12]; 5.5 hours after dosing) was 38% and the “Analgesic effect in comparison to the control group” value ([12]; at 3.5, 4.5 and 5.5 hours after dosing) was “significant analgesic effect”. The “Gene expression (in %) relative to LPS control, TNF-α” value [13] was 50.6%, the “Gene expression (in %) relative to LPS control, IL-1α” value [14] was 15.2% and the “Gene expression (in %) relative to LPS control, IL-6” value [15] was 52.3%. The “Gene expression (in %) relative to LPS control, MIP-3α” value [16] was 67.2%, the “Gene expression (in %) relative to LPS control, IL-8” value [17] was 72.4% and the “Gene expression (in %) relative to LPS control, MIP-2” value [18] was 52.0%. The “Gene expression (in %) relative to LPS control, COX-2” value [19] was 24.1%.
Compound `CCC/C=C1\OC(=O)c2ccccc21` [N-Butylidenephthalide, E + Z-3-Butylidenephthalide] has an IC50 ([1]; RAW264.7, 24 h) of 3 µM.

Source: patent US20090176873A1, “NOVEL USE OF ORGANIC COMPOUNDS” (DSM IP ASSETS B.V., priority 2005, published 2009)
